{
  "source": "patent US20220273759A1",
  "about": "“PHARMACEUTICAL ASSOCIATION FOR CONVERTING A NEOPLASTIC CELL INTO A NON-NEOPLASTIC CELL AND USES THEREOF” (HISTIDE AG, priority 2015, published 2022)",
  "key": {"[1]": {"experiment": "Stability of non-covalent association (release of FITC-labelled GFR-binding compound from carrier)", "format": "physicochemical", "conditions": "after 3, 7 or 10 days", "protocol": "Non-covalent associations of the bioactive carriers were performed under atmospheric conditions (air) at room temperature (about 22° C.). The non-covalent association was carried out using a mixture of GFR-binding compound of SEQ ID NO: 9 (concentration of 1×10^−3 M) with the apatite ceramics or a mixture of GFR-binding compound of SEQ ID NO: 10 (concentration of 1×10^−3 M) with the type-I collagen sponge. The non-covalent pharmaceutical associations were characterized by covalently associating fluorescent GFR-binding compounds of SEQ ID NO: 9 and 10 (covalently bound to fluorescein isothiocyanate (FITC), FIG. 1)."}, "Ras/MAP kinase": {"system": "Ras/MAP kinase", "experiment": "Adhesion checkpoint activation, western blot of ERK phosphorylation in osteosarcoma cells", "format": "cell-based", "conditions": "PET carrier, after 24 hours", "protocol": "(§1) After 24 hours of culture, cells were permeabilized (10% SDS, 25 mM NaCl, 10 nM pepstatin and 10 nM leupeptin in distilled water and loading buffer), boiled for 10 minutes and resolved by reducing PAGE (Invitrogen). Proteins were transferred onto nitrocellulose, blocked, and labeled with HRP-conjugated antibodies (Invitrogen). […] Phosphor-Smad1/5/8 was blotted by treating the nitrocellulose with monoclonal anti-p-Smad1/5/8 (Santa Cruz Biotechnology). For all of the experiments the western blot was performed in triplicate, along with an additional blot for actin and coomassie blue staining to ensure constant protein load among samples.\n(§2) Neoplastic cells (in this example osteosarcoma cells) were cultured on pharmaceutical associations comprising PET as a bioactive carrier and one of GFR-binding compounds of SEQ ID NO: 12, 19, 30 or 39. The main signaling pathways include: Ras/MAP kinase, FAK/Src kinase and PIP2 which are decreased after 24 hours as shown by western blot quantifications (FIG. 8). […] Finally, a decrease of 3-phosphoinositide-dependent protein kinase 1 (PDK1) protein expression was also was observed (FIG. 8C)."}, "[2]": {"experiment": "Adhesion checkpoint activation, western blot of PDK1 in osteosarcoma cells", "format": "cell-based", "conditions": "PET carrier, after 24 hours", "protocol": "as §1, §2"}, "Paxillin": {"system": "Paxillin", "experiment": "Paxillin gene expression by RT-PCR in osteosarcoma cells", "format": "cell-based", "conditions": "PET carrier, after 24 hours", "protocol": "(§3) After 24 hours of culture, total RNA was extracted by using the RNeasy total RNA kit (Qiagen®) according to the manufacturer's instructions. Purified total RNA was used as a template in order to make cDNA by a reverse transcription reaction (Gibco Brl®) with random primers (Invitrogen®). The cDNA was then used as a template for a real-time PCR amplification in the presence of SYBR green reagents (Bio-Rad®) by using a thermocycler (iCycler, Biorad®). Data were analyzed with the iCycler IQ™® software and compared by the ΔΔCt method. Briefly, the mean Ct value of the target gene was normalized to its averaged Ct values of the housekeeping gene (GAPDH) to give a ΔCt value, which was then normalized to a control sample to obtain a ΔΔCt value. The results were obtained from two series of experiments performed in triplicate.\n(§4) Neoplastic cells (in this example osteosarcoma cells) were cultured on pharmaceutical associations comprising PET as a bioactive carrier and one of GFR-binding compounds of SEQ ID NO: 12, 19, 30 or 39. After 24 hours, the Paxillin and Vinculin gene expression decreased as shown by RT-PCR (FIG. 9)."}, "Vinculin": {"system": "Vinculin", "experiment": "Vinculin gene expression by RT-PCR in osteosarcoma cells", "format": "cell-based", "conditions": "PET carrier, after 24 hours", "protocol": "as §3, §4"}, "[3]": {"system": "Cyclin D (Cyclin D1, Cyclin D2 and Cyclin D3)", "experiment": "Cyclin D profile by RT-PCR in osteosarcoma cells", "format": "cell-based", "conditions": "PET carrier, after the first 30 min of cell culture", "description": "There are many ways to test, measure and represent the inhibitory effect of a given substance on the gene or protein expression of cyclins D, but for the purpose of the present disclosure, and for the avoidance of any doubts, the inhibition values of a given pharmaceutical association or composition as defined herein is a measure of the gene expression of cyclins D as provided by RT-PCR. It is to be understood that the values of the gene expression of cyclins D disclosed herein correspond to the total gene expression of all cyclins D present in the tested cell i.e. D1, D2 and D3 as known at the date of the present disclosure.\nas §3\nNeoplastic cells (in this example osteosarcoma cells) were cultured on pharmaceutical associations comprising PET as a bioactive carrier and one of GFR-binding compounds of SEQ ID NO: 12, 19, 30 or 39. […]"}, "[4]": {"system": "neoplastic cells (osteosarcoma cells)", "experiment": "Immunofluorescence visualization of neoplastic cells cultured on a polymer scaffold covalently modified with a GFR-binding compound and a RGD peptide", "format": "cell-based", "conditions": "polymer scaffold covalently modified with a mixture of GFR-binding compound and RGD peptide; after 24 hours of culture", "protocol": "(b) Immunofluorescence visualization of a neoplastic cell (osteosarcoma cells) after silencing integrins α3β1 by using shRNAs, after 24 hours of culture on a polymer scaffold covalently grafted with RGD peptides. […] The actin filaments were immunostained by using Alexa 488-phalloidin. The focal adhesions were represented by immunostaining with anti-vinculin. The nucleus was stained with DAPI and is represented by a circle in the center of the cell. Scale bar: 5 μm. (c) Immunofluorescence visualization of neoplastic cells cultured on a polymer scaffold covalently modified with a mixture comprising a GFR-binding compound as defined herein (SEQ ID NO: 2) and a RGD peptide, after 24 hours of culture. Scale bar: 500 μm. […] The actin filaments were immunostained by using Alexa 488-phalloidin. The focal adhesions were represented by immunostaining with anti-vinculin. The nucleus was stained with DAPI and is represented by a circle in the center of the cell."}},
  "note": "Where no end group is shown, it is not given here.",
  "data": [
    {"substance": "SEQ ID NO: 10: GFR-binding compound of the sequence listing, non-covalently associated with type-I collagen sponge; sequence not shown in this part (KVGKASSVPTKLSAISTLYL; Non-cyclic GFR-binding peptide)", "values": [
      {"measurement": "release of GFR-binding compounds from the carrier", "setting": "[1]", "value": "no significant release"}
    ]},
    {"substance": "SEQ ID NO: 30: GFR-binding compound of the sequence listing, tested on PET as bioactive carrier; sequence not shown in this part (KIPKASSVPTELEPLPIVYY; Non-cyclic GFR-binding peptide)", "values": [
      {"measurement": "phosphorylation at Thr202 and Tyr204 on ERK", "setting": "Ras/MAP kinase", "value": "absence of phosphorylation"},
      {"measurement": "3-phosphoinositide-dependent protein kinase 1 (PDK1) protein expression", "setting": "[2]", "value": "decrease"},
      {"measurement": "Paxillin gene expression", "setting": "Paxillin", "value": "decreased"},
      {"measurement": "Vinculin gene expression", "setting": "Vinculin", "value": "decreased"},
      {"measurement": "Cyclin D gene expression (arithmetic mean of Cyclin D1, D2 and D3)", "setting": "[3]", "value": "decreased"}
    ]},
    {"substance": "SEQ ID NO: 19: GFR-binding compound of the sequence listing, tested on PET as bioactive carrier; sequence not shown in this part (RKIPKAGGVPTELSAISTLYL; Non-cyclic GFR-binding peptide)", "values": [
      {"measurement": "phosphorylation at Thr202 and Tyr204 on ERK", "setting": "Ras/MAP kinase", "value": "absence of phosphorylation"},
      {"measurement": "3-phosphoinositide-dependent protein kinase 1 (PDK1) protein expression", "setting": "[2]", "value": "decrease"},
      {"measurement": "Paxillin gene expression", "setting": "Paxillin", "value": "decreased"},
      {"measurement": "Vinculin gene expression", "setting": "Vinculin", "value": "decreased"},
      {"measurement": "Cyclin D gene expression (arithmetic mean of Cyclin D1, D2 and D3)", "setting": "[3]", "value": "decreased"}
    ]},
    {"substance": "SEQ ID NO: 2: GFR-binding compound as defined herein, covalently grafted on a polymer scaffold in a mixture with a RGD peptide (YVPKPSSAPTKLNAISTLYF; also: covalently grafted on a polymer scaffold)", "values": [
      {"measurement": "morphology of neoplastic cells (immunofluorescence: actin, vinculin, DAPI)", "setting": "[4]", "value": "Spheroid-like structures of neoplastic cells become predominant"}
    ]},
    {"substance": "SEQ ID NO: 39: GFR-binding compound of the sequence listing, tested on PET as bioactive carrier; sequence not shown in this part (KIPKASSVPTELEPLPILYF; Non-cyclic GFR-binding peptide)", "values": [
      {"measurement": "phosphorylation at Thr202 and Tyr204 on ERK", "setting": "Ras/MAP kinase", "value": "absence of phosphorylation"},
      {"measurement": "3-phosphoinositide-dependent protein kinase 1 (PDK1) protein expression", "setting": "[2]", "value": "decrease"},
      {"measurement": "Paxillin gene expression", "setting": "Paxillin", "value": "decreased"},
      {"measurement": "Vinculin gene expression", "setting": "Vinculin", "value": "decreased"},
      {"measurement": "Cyclin D gene expression (arithmetic mean of Cyclin D1, D2 and D3)", "setting": "[3]", "value": "decreased"}
    ]},
    {"substance": "SEQ ID NO: 9: GFR-binding compound of the sequence listing, non-covalently associated with apatite ceramics; sequence not shown in this part (AVPKASSAPTKLSAISMLYL; Non-cyclic GFR-binding peptide)", "values": [
      {"measurement": "release of GFR-binding compounds from the carrier", "setting": "[1]", "value": "no significant release"}
    ]},
    {"substance": "SEQ ID NO: 12: GFR-binding compound of the sequence listing, tested on PET as bioactive carrier; sequence not shown in this part (KVPKASSVPTELSAISTLYL; Non-cyclic GFR-binding peptide)", "values": [
      {"measurement": "phosphorylation at Thr202 and Tyr204 on ERK", "setting": "Ras/MAP kinase", "value": "absence of phosphorylation"},
      {"measurement": "3-phosphoinositide-dependent protein kinase 1 (PDK1) protein expression", "setting": "[2]", "value": "decrease"},
      {"measurement": "Paxillin gene expression", "setting": "Paxillin", "value": "decreased"},
      {"measurement": "Vinculin gene expression", "setting": "Vinculin", "value": "decreased"},
      {"measurement": "Cyclin D gene expression (arithmetic mean of Cyclin D1, D2 and D3)", "setting": "[3]", "value": "decreased"}
    ]}
  ]
}
